Measurements published in patent US7910560B2, “Method for increasing breast meat yield in poultry” (Arkion Life Sciences LLC, priority 2003, dated 2011).
Marks after values point to notes of the source that are not given here.

Experiments:
commercial broilers [1] = assay: Natamycin in feeds formulated for growing large broilers (Example 2); format: in vivo, Gallus domesticus
Excerpt: (§1) Mixed feed was stored in 50 lb capacity feed sacks. Feed was stored by treatment and treatment diets were further identified with color-codes. After each diet had been mixed, three composite samples (approximately 1 lb each) were collected. The amount of feed mixed for each treatment was as follows: [table] Normal, healthy day-old chicks were obtained from a commercial hatchery. Birds were transported from the hatchery location to Denver, Colo. via commercial air freight. Ground transportation was used to transport chicks from Denver to Wellington, Colo. The study started with 1400 commercial broilers of the species Gallus domesticus. Treatments were assigned to pens using randomized block design. The research facility was divided into 10 blocks of 2 pens each. Birds were assigned randomly according to CQR SOPs. Feed was provided ad libitum throughout the study via two hanging 17-inch diameter tube feeders per pen. A chick feeder tray was also placed in each pen for approximately the first 6 days. All birds were placed on their respective treatment diets upon receipt (approx. 0 days of age). All feed added and removed from pens was weighed and recorded. All experimental diet changes were conducted at the same time for both treatment groups.

commercial broilers [2] = assay: Natamycin in feeds formulated for portion-control processed broilers (Example 1); format: in vivo, Gallus domesticus
Excerpt: as §1, with “1200” for “1400”, “domesticus, the birds being placed into pens (30 male/30 female per pen).” for “domesticus.”, “SOPs. [table]” for “SOPs.”

commercial broilers [3] = assay: Natamycin feed additive in diets manufactured using a gap extender (Example 3); format: in vivo, Gallus domesticus
Excerpt: as §1, with “The natamycin test article” for “Mixed feed”, “mixed into the treatment” for “stored in 50 lb capacity feed sacks. Feed was stored”, “the ConAgra Poultry Company. Once” for “treatment and treatment diets were further identified with color-codes. After”, “1140” for “1400”, “SOPs. [table]” for “SOPs.”

[4] = cited from earlier work
[5] = 49 days, 1 lbs/ton natamycin in feed ad libitum

C[C@@H]1C/C=C/C=C/C=C/C=C/[C@H](O[C@@H]2O[C@H](C)[C@@H](O)[C@H](N)[C@@H]2O)C[C@@H]2O[C@](O)(C[C@@H](O)C[C@H]3O[C@@H]3/C=C/C(=O)O1)C[C@H](O)[C@H]2C(=O)O [Natamycin, natamycin]
Breast Weight, Treatment Total (commercial broilers [1]; 61 days, 1 lbs/ton natamycin in feed ad libitum, 230 birds printed): 141.840 | % Breast, Treatment Average (commercial broilers [1]; 61 days, 1 lbs/ton natamycin in feed ad libitum, statistically extremely significant): 21.72** % | Breast Weight, Treatment Average (commercial broilers [1]; 61 days, 1 lbs/ton natamycin in feed ad libitum, statistics not calculated): 0.505 | Breast weight and breast yield versus control (commercial broilers [1]; over a 61 day period, breast yield increase statistically significant): increased breast weight and breast yield | Breast Weight, Treatment Total (commercial broilers [2]; 43 days, 1 lbs/ton natamycin in feed ad libitum, 230 birds): 77.485 | % Breast, Treatment Average (commercial broilers [2]; 43 days, 1 lbs/ton natamycin in feed ad libitum, statistically extremely significant): 22.83** % | Breast Weight, Treatment Average (commercial broilers [2]; 43 days, 1 lbs/ton natamycin in feed ad libitum, statistically very significant): 0.337* | Breast weight and breast yield versus control (commercial broilers [2]; over a 43 day period, statistically significant): increased breast weight and breast yield | Breast Weight, Bird Average (commercial broilers [3]; [5]): 0.465 | Breast Weight, Pen Average (commercial broilers [3]; [5]): 8.315 | % Breast, Pen Average (commercial broilers [3]; 49 days, 1 lbs/ton natamycin in feed ad libitum, statistically significant): 23.31* % | Breast weight and breast yield versus control (commercial broilers [3]; over a 49 day period, breast yield increase statistically significant): increased breast weight and breast yield | Solubility in water [4]: 0.005-0.010 weight/weight percent
